Results on 3 compounds are retold here after ChEMBL document CHEMBL1134072, “Anodic oxidation of ifosfamide and cyclophosphamide: a biomimetic metabolism model of the oxazaphosphorinane anticancer drugs” (Bioorg Med Chem Lett, 2001).

The assay in a line: In vitro cytotoxicity tested as inhibitory concentration against carcinoma KB cell line. Type of assay: functional, cell-based. To be noted: Homo sapiens.
As a reminder, the IC50 is the concentration that inhibits the measured activity by half. High values mean weaker potency, low ones greater potency. On to `CO[C@@H]1CCOP(=O)(NCCCl)N1CCCl` (stereo partly drawn), for which the IC50 was found to be 22 µM.
The same measure for `CO[C@H]1CCOP(=O)(NCCCl)N1CCCl` (stereo partly drawn): 20 µM; for `O=P1(NCCCl)OCCC(O)N1CCCl` (stereo not drawn) [ALDOIFOSFAMIDE]: 10 µM.
